From the supplement of paper PMC10307832

Key:
Assay in all cases: relative viability (nuclei count vs DMSO), 5 days (fraction); higher = more cells survive
Carfilzomib + Luminespib = compound: CC(C)C[C@H](NC(=O)[C@H](CCc1ccccc1)NC(=O)CN1CCOCC1)C(=O)N[C@@H](Cc1ccccc1)C(=O)N[C@@H](CC(C)C)C(=O)[C@@]1(C)CO1 [Carfilzomib] + CCNC(=O)c1noc(-c2cc(C(C)C)c(O)cc2O)c1-c1ccc(CN2CCOCC2)cc1 [Luminespib] (partner 0.01 µM)
Method in brief: (§1)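 Each reported value is a median over duplicate plates. It expresses relative viability: treated-well nuclei count divided by vehicle-well nuclei count. Lung cancer cell lines in 1536-well plates were dosed by pin tool a day after seeding, alone with one drug or with a fixed anchor-drug dose plus five library-drug doses (not always all listed) in √10 steps, and nuclei were counted after 5 days.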

Olaparib + Lapatinib = compound: O=C(c1cc(Cc2n[nH]c(=O)c3ccccc23)ccc1F)N1CCN(C(=O)C2CC2)CC1 [Olaparib] + CS(=O)(=O)CCNCc1ccc(-c2ccc3ncnc(Nc4ccc(OCc5cccc(F)c5)c(Cl)c4)c3c2)o1 [Lapatinib] (partner 2 µM)
Method in brief: as §1

Olaparib + Trametinib = compound: O=C(c1cc(Cc2n[nH]c(=O)c3ccccc23)ccc1F)N1CCN(C(=O)C2CC2)CC1 [Olaparib] + CC(=O)Nc1cccc(-n2c(=O)n(C3CC3)c(=O)c3c(Nc4ccc(I)cc4F)n(C)c(=O)c(C)c32)c1 [Trametinib] (partner 0.02 µM)
Method in brief: as §1

Crizotinib + Tozasertib = compound: C[C@@H](Oc1cc(-c2cnn(C3CCNCC3)c2)cnc1N)c1c(Cl)ccc(F)c1Cl [Crizotinib] + Cc1cc(Nc2cc(N3CCN(C)CC3)nc(Sc3ccc(NC(=O)C4CC4)cc3)n2)n[nH]1 [Tozasertib] (partner 0.1 µM)
Method in brief: as §1

Row | Cell Line | relative viability (Carfilzomib + Luminespib; first compound 0.001 µM) | relative viability (Carfilzomib + Luminespib; first compound 0.003162 µM) | relative viability (Carfilzomib + Luminespib; first compound 0.01 µM) | relative viability (Carfilzomib + Luminespib; first compound 0.03162 µM) | relative viability (Carfilzomib + Luminespib; first compound 0.1 µM) | relative viability (Olaparib + Lapatinib; first compound 0.08 µM) | relative viability (Olaparib + Lapatinib; first compound 0.253 µM) | relative viability (Olaparib + Lapatinib; first compound 2.53 µM) | relative viability (Olaparib + Lapatinib; first compound 8 µM) | relative viability (Olaparib + Trametinib; first compound 0.08 µM) | relative viability (Olaparib + Trametinib; first compound 0.253 µM) | relative viability (Olaparib + Trametinib; first compound 2.53 µM) | relative viability (Olaparib + Trametinib; first compound 8 µM) | relative viability (Crizotinib + Tozasertib; first compound 0.01 µM) | relative viability (Crizotinib + Tozasertib; first compound 0.03162 µM) | relative viability (Crizotinib + Tozasertib; first compound 0.1 µM) | relative viability (Crizotinib + Tozasertib; first compound 0.3162 µM) | relative viability (Crizotinib + Tozasertib; first compound 1 µM)
1 | NCI-H520 | 0.231 | 0.227 | 0.18 | 0.22 | 0.247 | 1.08 | 0.795 | 0.725 | 0.525 | 0.794 | 0.527 | 0.506 | 0.311 | 0.47 | 0.469 | 0.448 | 0.45 | 0.458
2 | NCI-H596 | 1.16 | 1.05 | 1.14 | 0.354 | 0.195 | 1.09 | 0.988 | 1.06 | 0.73 | 0.789 | 0.719 | 0.82 | 0.637 | 0.887 | 0.804 | 0.924 | 0.861 | 
3 | NCI-H647 | 0.203 | 0.143 | 0.2 | 0.0957 | 0.0461 | 1.43 | 0.984 | 1.13 | 0.59 | 0.471 | 0.424 | 0.54 | 0.523 | 0.267 | 0.305 | 0.248 | 0.26 | 0.204
4 | NCI-H650 |  | 0.866 | 0.636 | 0.746 | 0.182 | 1.05 | 0.834 | 0.903 | 0.742 | 0.893 | 0.939 | 0.915 | 0.782 | 0.772 | 0.726 | 0.721 | 0.616 | 0.809
5 | NCI-H661 | 0.93 | 0.967 | 0.933 | 0.866 | 0.291 | 0.638 | 0.443 | 0.426 | 0.543 | 0.602 | 0.5 | 0.569 | 0.525 | 0.336 | 0.337 | 0.337 | 0.369 | 0.355
6 | NCI-H727 | 0.32 | 0.436 | 0.294 | 0.498 | 0.201 | 0.945 | 0.778 | 0.651 | 0.465 | 0.415 | 0.363 | 0.37 | 0.349 |  | 0.605 | 0.612 |  | 0.634
7 | NCI-H838 | 0.27 | 0.255 | 0.301 | 0.19 | 0.13 | 0.94 | 0.857 | 0.887 | 1.09 | 0.585 | 0.493 | 0.536 | 0.547 | 0.243 | 0.296 | 0.246 | 0.266 | 0.269
8 | NCI-H1355 | 0.723 | 0.791 | 0.731 | 0.606 | 0.238 | 1.13 | 0.863 | 1 | 0.944 | 0.385 | 0.433 | 0.481 | 0.476 | 0.568 | 0.545 | 0.555 | 0.515 | 0.598
9 | NCI-H1395 | 0.594 | 0.783 | 0.66 | 0.561 | 0.309 | 0.98 | 0.661 | 0.839 | 0.435 | 1.11 | 0.876 | 0.852 | 0.629 | 0.67 | 0.734 | 0.764 | 0.738 | 0.74
10 | NCI-H1437 | 1.08 | 1.24 | 1.11 | 0.94 | 0.249 | 0.801 | 0.652 | 0.717 | 0.599 | 0.535 | 0.469 | 0.503 | 0.504 | 0.379 | 0.409 | 0.406 | 0.384 | 0.374
11 | NCI-H1650 | 0.174 | 0.199 | 0.213 | 0.175 | 0.181 | 1.04 | 0.756 | 0.796 | 0.749 | 0.6 | 0.503 | 0.62 | 0.565 | 0.407 | 0.35 | 0.433 | 0.356 | 0.415
12 | NCI-H1651 | 0.766 | 0.913 | 0.916 | 0.2 | 0.12 | 0.712 | 0.752 | 0.628 | 0.27 | 0.849 | 0.75 | 0.642 | 0.504 | 0.697 | 0.7 | 0.701 | 0.723 | 0.621
13 | NCI-H1666 | 0.993 | 1.06 | 1.11 | 0.863 | 0.358 | 0.845 | 0.633 | 0.577 | 0.532 | 0.872 | 0.95 | 0.791 | 0.765 | 0.547 | 0.586 | 0.665 | 0.648 | 0.539
14 | NCI-H1734 | 0.188 | 0.177 | 0.235 | 0.184 | 0.107 | 1.1 | 0.974 | 0.933 | 0.749 | 0.688 | 0.583 | 0.718 | 0.565 | 0.247 | 0.27 | 0.253 |  | 0.257
15 | NCI-H1755 | 0.54 | 0.367 | 0.481 | 0.288 | 0.453 | 1.15 | 0.916 | 1.08 | 0.967 | 0.728 | 0.738 | 0.784 | 0.725 | 0.614 | 0.563 | 0.617 | 0.467 | 0.549
16 | NCI-H1915 | 0.698 | 0.781 | 0.766 | 0.375 | 0.0837 | 1.05 | 0.813 | 0.778 | 0.76 | 0.278 | 0.285 | 0.261 | 0.206 | 0.49 | 0.463 | 0.439 |  | 0.382
